Legend:
[1] = tested on: allogeneic GVHD model; assay type: in vivo
Excerpt: To test whether gene modified (GR2-CRISPR/Cas9) or gene edited (GR2-CRISPR/Cas9/AAV-CaN mut.) Tregs have increased efficacy in vivo in the presence of glucocorticoid, how glucocorticoid (methyl-prednisolone) effects GVHD in preclinical mouse models was first determined. […] For these reasons, as well as the more logistically feasible and cost effective benefits of an allogeneic GVHD model, optimized steroid use in allogeneic recipients for GVHD prevention and therapy were first tested, and then applied to a xenogeneic model to enable testing of the human Treg product. […] The T cell dose was reduced to 1.5×10^6 and moved to GVHD therapy beginning on day 3 or day 4 (rather than day 1 prophylaxis) and compared no treatment to vehicle to prednisolone (n=8/group).

[2] = tested on: xeno-GVHD model; assay: Xenogeneic GVHD model (NSG mice given human PBMC); assay type: in vivo
Description: FIGS. 11A-11D depicts the monitoring of GVHD in mice. Human PBMC (15×10^6) were injected into irradiated (50 rad) NSG mice±methylprednisolone (15 mg/kg), and signs of GVHD were monitored. FIG. 11A depicts a schematic illustration of the experiments indicating cohorts (n=7 mice each), dosing schedule, and analysis points. FIG. 11B depicts Kaplan-Meier survival curves for mice receiving PBMC only, or PBMC+prednisolone (p=0.104). FIG. 11C depicts disease progression monitored by weight loss (p=not significant). FIG. 11D depicts disease progression monitored by quantitating the number of PBMC-derived CD45+, CD4+, CD8+, and CD4+Foxp3+ T cells (p<0.03, <0.05, <0.03, and not significant, respectively). Animals were bled on day 19 for assessment.
FIGS. 12A-12D depicts the monitoring of GVHD in mice. […] FIG. 12B depicts Kaplan-Meier survival curves for mice receiving PBMC only, or PBMC+CNI (PBMC only vs. FK506 (36 mg/kg), p≤0.04). FIG. 12C depicts disease progression monitored by weight loss (p=not significant). FIG. 12D depicts disease progression monitored by quantitating the number of PBMC-derived CD45+, CD4+, CD8+, and CD4+Foxp3+ T cells (p<0.03, <0.05, <0.02, and not significant, respectively). Animals were bled on day 18 for assessment.
A follow up study has shown that xeno-GVHD pathology induced with 200 rad+1×10^7 human PBMC is more reproducible, and median survival is reduced from ˜25 days to ˜20 days.

[3] = tested on: Tregs; assay: CNI (CsA, FK506) effect on Treg survival in vitro; assay type: cell-based, human; details: cyclosporine 20, 200, 2000 ng/ml or FK506 3, 10, 30 ng/ml, 2-3 days; IL-2 300 U/mL; even at >3-fold over peak therapeutic values
Description: The percent survival relative to the control Tregs without drugs is shown. IL-2 concentration of 300 U/mL was used. […] FIG. 7D depicts data showing the percent relative survival of Tregs without drug at IL-2 300 U/mL as compared to those cultured with the indicated concentrations of drug in the presence of IL-2 at 30, 100, or 300 U/mL as indicated. Mean values are shown±standard error of the mean for three (FIG. 7B) or four (FIG. 7D) separate cultures.
To model the in vivo inhibitory effects of CNI on Treg survival and expansion, banked Tregs were thawed, re-stimulated, expanded for 4±1 days and treated with or without cyclosporine (20, 200, and 2000 ng/ml) or FK506 (3, 10, 30 ng/ml) for an additional 2-3 days and relative survival was assessed by flow cytometry. Studies were performed with non-separated Tregs, naïve Tregs and memory Tregs, to determine whether one subset was differentially sensitive to Dex and CNIs and to determine whether IL-2 dependency differences might permit lower IL-2 concentrations.

C=CC[C@@H]1/C=C(\C)C[C@H](C)C[C@H](OC)[C@H]2O[C@@](O)(C(=O)C(=O)N3CCCC[C@H]3C(=O)O[C@H](/C(C)=C/[C@@H]3CC[C@@H](O)[C@H](OC)C3)[C@H](C)[C@@H](O)CC1=O)[C@H](C)C[C@@H]2OC [FK506, Tacrolimus]
day 100 survival ([1]; 36 mg/kg/day in carboxymethylcellulose, vehicle 0% by day 37): 55%-90
GVHD prophylaxis efficacy ([1]; 12 or 24 mg/kg/day in aqueous solution): poorer efficacy
optimal GVHD prophylactic dose ([1]; allogeneic GVHD model): 36 mg/kg/day
survival ([2]; 12 mg/kg, P=0.45): not significantly different
median survival ([2]; 12 mg/kg, controls 29 days): 20 days
in vivo expansion of human CD45+, CD4+ and CD8+ cells ([2]; FK506 36 or 12 mg/kg, CsA 80 mg/kg, vs PBMC only controls): significantly reduced
survival ([2]; high dose, 36 mg/kg): significantly decreased survival
effect on Treg survival in vitro [3]: neither CsA or FK506 had a significant effect on Treg survival

Reference: patent publication US12343397B2, “Drug-resistant immune cells and methods of use thereof” (Regents of the University of Minnesota, priority 2018, dated 2025)
